Source: PubChem BioAssay (NCI)
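1) Cells in 96-well plates. 2) Compound, 48 h, 5 concentrations. 3) Linear interpolation between surrounding doses. 4) Unreached endpoint = highest concentration. TGI: concentration producing complete growth inhibition.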

How the values were obtained:
Test in all cases: NCI tumour cell line growth inhibition, 48 h
[1] = system: XF 498 CNS
[2] = system: M19-MEL melanoma
[3] = system: DLD-1 colon
[4] = system: RXF-631 renal
[5] = system: SNB-78 CNS
[6] = system: SN12K1 renal
[7] = system: P388/ADR leukemia
[8] = system: P388 leukemia

## O=C(c1ccc(Cl)cc1)c1ccc(OCCCOc2ccc(C(=O)c3ccc(Cl)cc3)cc2Cl)c(Cl)c1
[1]
  TGI: > 100 µM
[2]
  TGI: > 100 µM
[3]
  TGI: > 100 µM
[4]
  TGI: > 100 µM
[5]
  TGI: > 100 µM

## S=c1ncc2c([nH]1)C1c3ccccc3C2c2ccccc21
[2]
  TGI: > 100 µM
[5]
  TGI: > 100 µM

## COc1nc(N)c(NC(C)=O)c(=O)n1C
[1]
  TGI: > 100 µM
[3]
  TGI: > 100 µM
[4]
  TGI: > 100 µM
[5]
  TGI: > 100 µM

## CCOc1ccccc1N=Nc1c(-c2ccccc2)nn(C(=O)CC(=O)Nc2cccc(C)c2)c1-c1ccccc1
[1]
  TGI: > 100 µM
[2]
  TGI: > 100 µM
[3]
  TGI: > 100 µM
[4]
  TGI: > 100 µM
[5]
  TGI: > 100 µM

## C/C=C1\CN2CCc3c([nH]c4ccccc34)C2CC1CCO (stereo not given)
[1]
  TGI: > 100 µM
[2]
  TGI: > 100 µM
[3]
  TGI: > 100 µM
[4]
  TGI: > 100 µM
[5]
  TGI: > 100 µM

## COc1cc(OC)cc(-c2cc(=O)c3cc4c(cc3[nH]2)OCO4)c1
[1]
  TGI: 2.58 µM
[2]
  TGI: > 100 µM
[3]
  TGI: 36.4 µM
[5]
  TGI: > 89.2 µM

## CCOC(=O)CC(NC(=O)c1[nH]cnc1/N=N/N(C)C)C(=O)OCC (stereo not given)
[2]
  TGI: > 100 µM
[3]
  TGI: > 100 µM

## CC1C2C=C(O)C(=O)C(C2=O)C1c1ccccc1 (stereo not given)
[2]
  TGI: > 100 µM
[3]
  TGI: > 100 µM
[4]
  TGI: > 100 µM
[5]
  TGI: > 100 µM

## CSCSCC(CO)NC(=O)/C(C)=C\c1c(C)[nH]c(=O)[nH]c1=O (stereo not given)
[1]
  TGI: > 224 µM
[6]
  TGI: > 250 µM
[7]
  TGI: > 250 µM
[2]
  TGI: > 250 µM
[3]
  TGI: > 250 µM
[8]
  TGI: > 250 µM
[5]
  TGI: > 250 µM

## COC1(OC)C2(Cl)C(Cl)=C(Cl)C1(Cl)C1C2C2CC1(C(=O)O)c1ccccc12 (stereo not given)
[2]
  TGI: 38.3 µM
[3]
  TGI: 35.6 µM
[4]
  TGI: 42.8 µM

## Cn1cc2ccccc2c1-c1nc(F)nc(Oc2ccc3c(c2)CC[C@@H]2C3CC[C@@]3(C)C2C[C@H](O)[C@@H]3O)n1 (stereo not given in full)
[1]
  TGI: 60.3 µM
[2]
  TGI: 41.9 µM
[3]
  TGI: 22.1 µM
[5]
  TGI: 54.2 µM
